Data on 27 molecules can be found in patent US20160060260A1, “BROMODOMAIN INHIBITORS FOR TREATING DISEASE” (Board of Regents, The University of Texas System, priority 2014, published 2016).

For the assay, the target named is T1, Recombinant human His-tagged Trim24-PHD-bromodomain (Homo sapiens, UniProt O15164).
T1 construct: Recombinant human His-tagged Trim24-PHD-bromodomain (produced in-house); made in house
T1 sequence (O15164 824-1006 limits assumed): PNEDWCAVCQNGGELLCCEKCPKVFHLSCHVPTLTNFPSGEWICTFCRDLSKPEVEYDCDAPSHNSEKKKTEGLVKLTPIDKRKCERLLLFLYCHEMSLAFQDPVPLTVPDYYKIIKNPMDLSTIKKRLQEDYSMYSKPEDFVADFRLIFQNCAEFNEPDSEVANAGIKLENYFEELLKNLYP
As to the kind of experiment: Trim24 AlphaScreen Assay. The class given is binding. The conditions noted are these: 5 nM Trim24 protein, 15 nM biotinylated H3K23ac (1-33aa) peptide. The procedure, abridged: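 AlphaScreen read-out after 2 h with streptavidin donor and Ni-chelate acceptor beads at 10 ug/mL each, following 1 h room-temperature incubation of compound, His-tagged PHD-bromodomain protein and biotin-H3K23ac (1-33aa) peptide in Hepes pH 7.5 buffer with NaCl and Triton X-100. Signals normalised between no-compound and no-protein wells; IC50 from four-parameter logistic curves.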
For `Cn1c(=O)n(C)c2cc(Oc3cccc(OCC4CC4)c3)c(NS(=O)(=O)c3cn[nH]c3)cc21` [Example 132, N-(6-(3-(cyclopropylmethoxy)phenoxy)-1,3-dimethyl-2-oxo-2,3-dihydro-1H-benzo[d]imidazol-5-yl)-1H-pyrazole-4-sulfonamide], the concentration for half-maximal inhibition (IC50) lay in the range of 100 to 1000 nM.

Consider `CCCOc1ccc(F)c(Oc2cc3c(cc2NS(=O)(=O)c2cn(C)c(C)n2)n(C)c(=O)n3C)c1` [Example 133, N-(6-(2-fluoro-5-propoxyphenoxy)-1,3-dimethyl-2-oxo-2,3-ddihydro-1H-benzo[d]imidazol-5-yl)-1,2-dimethyl-1H-imidazole-4-sulfonamide], for which the IC50 was in the range of 100 to 1000 nM.

In the case of `CCCOc1ccc(F)c(Oc2cc3c(cc2NS(=O)(=O)c2ccc(OC)c(OC)c2)n(C)c(=O)n3C)c1` [Example 134, N-(6-(2-fluoro-5-propoxyphenoxy)-1,3-dimethyl-2-oxo-2,3-dihydro-1H-benzo[d]imidazol-5-yl)-3,4-dimethoxybenzenesulfonamide], the half-maximal inhibitory concentration (IC50) is 10 to 100 nM.

As to `CCCOc1ccc(F)c(Oc2cc3c(cc2NS(=O)(=O)c2cccnc2)n(C)c(=O)n3C)c1` [Example 135, N-(6-(2-fluoro-5-propoxyphenoxy)-1,3-dimethyl-2-oxo-2,3-dihydro-1H-benzo[d]imidazol-5-yl)pyridine-3-sulfonamide], the IC50 lay in the range of 10 to 100 nM.

In the case of `Cc1n[nH]c(C)c1S(=O)(=O)Nc1cc2c(cc1Oc1cccc(OCC3CC3)c1)n(C)c(=O)n2C` [Example 136, N-(6-(3-(cyclopropylmethoxy)phenoxy)-1,3-dimethyl-2-oxo-2,3-dihydro-1H-benzo[d]imidazol-5-yl)-3,5-dimethyl-1H-pyrazole-4-sulfonamide], the 50% inhibitory concentration (IC50) fell in the range of 10 to 100 nM.

Take `CCCOc1cc(OCCCOC)cc(Oc2cc3c(cc2NS(=O)(=O)c2cccnc2)n(C)c(=O)n3C)c1` [Example 137, N-(6-(3-(3-methoxypropoxy)-5-propoxyphenoxy)-1,3-dimethyl-2-oxo-2,3-dihydro-1H-benzo[d]imidazol-5-yl)pyridine-3-sulfonamide]: the IC50 lay within 10 to 100 nM.

Consider `CCCOc1cc(OCCCOC)cc(Oc2cc3c(cc2NS(=O)(=O)c2ccc(OC)c(OC)c2)n(C)c(=O)n3C)c1` [Example 138, 3,4-dimethoxy-N-(6-(3-(3-methoxypropoxy)-5-propoxyphenoxy)-1,3-dimethyl-2-oxo-2,3-dihydro-1H-benzo[d]imidazol-5-yl)benzenesulfonamide], for which the 50% inhibitory concentration (IC50) is 10 to 100 nM.

In the case of `CCCOc1cc(OCCCOC)cc(Oc2cc3c(cc2NS(=O)(=O)c2cn(C(C)C)c(C)n2)n(C)c(=O)n3C)c1` [Example 139, 1-isopropyl-N-(6-(3-(3-methoxypropoxy)-5-propoxyphenoxy)-1,3-dimethyl-2-oxo-2,3-dihydro-1H-benzo[d]imidazol-5-yl)-2-methyl-1H-imidazole-4-sulfonamide], the IC50 lay in the range of 10 to 100 nM.

For `CCCOc1cc(OCCCOC)cc(Oc2cc3c(cc2NS(=O)(=O)c2cn4c(n2)CCCC4)n(C)c(=O)n3C)c1` [Example 140, N-(6-(3-(3-methoxypropoxy)-5-propoxyphenoxy)-1,3-dimethyl-2-oxo-2,3-dihydro-1H-benzo[d]imidazol-5-yl)-5,6,7,8-tetrahydroimidazo[1,2-a]pyridine-2-sulfonamide], the IC50 lay in the range of 10 to 100 nM.

Consider `COCCCOc1cc(OCC(F)(F)F)cc(Oc2cc3c(cc2NS(=O)(=O)c2cn(C)c(C)n2)n(C)c(=O)n3C)c1` [Example 141, N-(6-(3-(3-methoxypropoxy)-5-(2,2,2-trifluoroethoxy)phenoxy)-1,3-dimethyl-2-oxo-2,3-dihydro-1H-benzo[d]imidazol-5-yl)-1,2-dimethyl-1H-imidazole-4-sulfonamide], for which the IC50 lay within 10 to 100 nM.

Take `C=CCOc1cccc(Oc2cc3c(cc2NS(=O)(=O)c2cccc4ccccc24)n(C)c(=O)n3C)c1` [Example 142, N-(6-(3-(allyloxy)phenoxy)-1,3-dimethyl-2-oxo-2,3-dihydro-1H-benzo[d]imidazol-5-yl)naphthalene-1-sulfonamide]: the IC50 was 100 to 1000 nM.

For `C=CCOc1cccc(Oc2cc3c(cc2NS(=O)(=O)c2ccc(OC)c(NC(C)=O)c2)n(C)c(=O)n3C)c1` [Example 143, N-(5-(N-(6-(3-(allyloxy)phenoxy)-1,3-dimethyl-2-oxo-2,3-dihydro-1H-benzo[d]imidazol-5-yl)sulfamoyl)-2-methoxyphenyl)acetamide], the IC50 lay within 100 to 1000 nM.

`C=CCOc1cccc(Oc2cc3c(cc2NS(=O)(=O)c2ccccn2)n(C)c(=O)n3C)c1` [Example 144, N-(6-(3-(allyloxy)phenoxy)-1,3-dimethyl-2-oxo-2,3-dihydro-1H-benzo[d]imidazol-5-yl)pyridine-2-sulfonamide]: the IC50 was in the range of 100 to 1000 nM.

Consider `COc1ccc(S(=O)(=O)Nc2cc3c(cc2Oc2cccc(OCCCCCCN)c2)n(C)c(=O)n3C)cc1OC` [Example 145, N-(6-(3-((6-aminohexyl)oxy)phenoxy)-1,3-dimethyl-2-oxo-2,3-dihydro-1H-benzo[d]imidazol-5-yl)-3,4-dimethoxybenzenesulfonamide], for which the half-inhibitory concentration (IC50) was in the range of 10 to 100 nM.

Take `Cn1cnc(S(=O)(=O)Nc2cc3c(cc2Oc2cccc(OCCCCCCN)c2)n(C)c(=O)n3C)c1` [Example 146, N-(6-(3-((6-aminohexyl)oxy)phenoxy)-1,3-dimethyl-2-oxo-2,3-dimethyl-2-oxo-2,3-dihydro-1H-benzo[d]imidazol-5-yl)-1-methyl-1H-imidazole-4-sulfonamide]: the IC50 fell in the range of 100 to 1000 nM.

For the molecule `CCCOc1cc(OCCCOC)cc(Oc2cc3c(cc2NS(=O)(=O)c2cn(CC(C)C)cn2)n(C)c(=O)n3C)c1` [Example 147, 1-isobutyl-N-(6-(3-(3-methoxypropoxy)-5-propoxyphenoxy)-1,3-dimethyl-2-oxo-2,3-dihydro-1H-benzo[d]imidazol-5-yl)-1H-imidazole-4-sulfonamide], the IC50 was 10 to 100 nM.

In the case of `CCCOc1cc(OCCCOC)cc(Oc2cc3c(cc2NS(=O)(=O)c2cn(C(C)CC)cn2)n(C)c(=O)n3C)c1` (stereo not drawn) [Example 148, 1-(sec-butyl)-N-(6-(3-(3-methoxypropoxy)-5-propoxyphenoxy)-1,3-dimethyl-2-oxo-2,3-dihydro-1H-benzo[d]imidazol-5-yl)-1H-imidazole-4-sulfonamide], the 50% inhibitory concentration (IC50) was in the range of 10 to 100 nM.

With `CCCOc1cc(OCCCOC)cc(Oc2cc3c(cc2NS(=O)(=O)c2cn(C)c(Cl)n2)n(C)c(=O)n3C)c1` [Example 149, 2-chloro-N-(6-(3-(3-methoxypropoxy)-5-propoxyphenoxy)-1,3-dimethyl-2-oxo-2,3-dihydro-1H-benzo[d]imidazol-5-yl)-1-methyl-1H-imidazole-4-sulfonamide], the IC50 is 10 to 100 nM.

On to `CCCOc1cc(OCCCOC)cc(Oc2cc3c(cc2NS(=O)(=O)C2CC2)n(C)c(=O)n3C)c1` [Example 150, N-(6-(3-(3-methoxypropoxy)-5-propoxyphenoxy)-1,3-dimethyl-2-oxo-2,3-dihydro-1H-benzo[d]imidazol-5-yl)cyclopropanesulfonamide], for which the half-inhibitory concentration (IC50) fell in the range of 100 to 1000 nM.

For the molecule `CCCOc1cc(OCCCOC)cc(Oc2cc3c(cc2NS(=O)(=O)c2cccc(OC)c2)n(C)c(=O)n3C)c1` [Example 151, 3-methoxy-N-(6-(3-(3-methoxypropoxy)-5-propoxyphenoxy)-1,3-dimethyl-2-oxo-2,3-dihydro-1H-benzo[d]imidazol-5-yl)benzenesulfonamide], the IC50 fell in the range of 10 to 100 nM.

`CCCOc1cc(OCCCOC)cc(Oc2cc3c(cc2NS(=O)(=O)c2cn(C)cn2)n(C)c(=O)n3C)c1` [Example 152, N-(6-(3-(3-methoxypropoxy)-5-propoxyphenoxy)-1,3-dimethyl-2-oxo-2,3-dihydro-1H-benzo[d]imidazol-5-yl)-1-methyl-1H-imidazole-4-sulfonamide]: the 50% inhibitory concentration (IC50) lay within 10 to 100 nM.

Regarding `CCCOc1cc(OCCCOC)cc(Oc2cc3c(cc2NS(=O)(=O)c2cnn(C)c2)n(C)c(=O)n3C)c1` [Example 153, N-(6-(3-(3-methoxypropoxy)-5-propoxyphenoxy)-1,3-dimethyl-2-oxo-2,3-dihydro-1H-benzo[d]imidazol-5-yl)-1-methyl-1H-pyrazole-4-sulfonamide], the half-inhibitory concentration (IC50) is 10 to 100 nM.

Consider `CCCOc1cc(OCCCOC)cc(Oc2cc3c(cc2NS(=O)(=O)c2cnn(C)c2C)n(C)c(=O)n3C)c1` [Example 154], for which the IC50 fell in the range of 10 to 100 nM.

For the molecule `CCCOc1cc(OCCCOC)cc(Oc2cc3c(cc2NS(=O)(=O)c2cccc(C)c2)n(C)c(=O)n3C)c1` [Example 155, N-(6-(3-(3-methoxypropoxy)-5-propoxyphenoxy)-1,3-dimethyl-2-oxo-2,3-dihydro-1H-benzo[d]imidazol-5-yl)-3-methylbenzenesulfonamide], the IC50 fell in the range of 100 to 1000 nM.

For the molecule `CCCOc1cc(OCCCOC)cc(Oc2cc3c(cc2NS(=O)(=O)c2cccc(F)c2)n(C)c(=O)n3C)c1` [Example 156, 3-fluoro-N-(6-(3-(3-methoxypropoxy)-5-propoxyphenoxy)-1,3-dimethyl-2-oxo-2,3-dihydro-1H-benzo[d]imidazol-5-yl)benzenesulfonamide], the IC50 fell in the range of 100 to 1000 nM.

In the case of `CCCOc1cc(OCCCOC)cc(Oc2cc3c(cc2NS(=O)(=O)c2ccc(OC)cc2)n(C)c(=O)n3C)c1` [Example 157, 4-methoxy-N-(6-(3-(3-methoxypropoxy)-5-propoxyphenoxy)-1,3-dimethyl-2-oxo-2,3-dihydro-1H-benzo[d]imidazol-5-yl)benzenesulfonamide], the IC50 was in the range of 100 to 1000 nM.

On to `CCCOc1cc(OCCCOC)cc(Oc2cc3c(cc2NS(=O)(=O)c2ccccn2)n(C)c(=O)n3C)c1` [Example 158, N-(6-(3-(3-methoxypropoxy)-5-propoxyphenoxy)-1,3-dimethyl-2-oxo-2,3-dihydro-1H-benzo[d]imidazol-5-yl)pyridine-2-sulfonamide], for which the IC50 lay within 10 to 100 nM.
